According to US10131652B2, “Pyrimidinyloxy benzene derivatives as herbicides” (E. I. DU PONT DE NEMOURS AND COMPANY, priority 2014, dated 2018):
Like-named read-outs stand apart in the source and are kept apart here.

Tests used:
Format in all cases: in vivo
[1] = test system: barnyardgrass (Echinochloa crus-galli); assay: Test B pre-/postemergence plant response; details: Echinochloa crus-galli, 240 h, read-out: Plant response rating, Barnyardgrass; for pest or weed control at 125 g/ha: 125 g ai/ha; for pest or weed control at 500 g/ha: 500 g ai/ha
In short: (§1)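 Seeds in loam–sand blend given preemergence soil spray; separately, plants at one- to two-leaf stage (2–10 cm) sprayed postemergence, compounds in non-phytotoxic solvent with surfactant. Injury rated visually versus untreated controls after ~10 days in greenhouse, 0 (no effect) to 100 (complete control).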

corn (Zea mays) = assay: Test B pre-/postemergence plant response; details: Zea mays, 240 h; for Corn plant response rating (crop injury, 0 = no effect, 100 = complete kill) at 125 g/ha: 125 g ai/ha; for Corn plant response rating (crop injury, 0 = no effect, 100 = complete kill) at 500 g/ha: 500 g ai/ha
In short: as §1

[2] = test system: giant foxtail (Setaria faberii); assay: Test B pre-/postemergence plant response; details: Setaria faberi, 240 h, read-out: Plant response rating, Foxtail, Giant; for pest or weed control at 125 g/ha: 125 g ai/ha; for pest or weed control at 500 g/ha: 500 g ai/ha
In short: as §1

[3] = test system: pigweed (Amaranthus retroflexus); assay: Test B pre-/postemergence plant response; details: Amaranthus retroflexus, 240 h, read-out: Plant response rating, Pigweed; for pest or weed control at 125 g/ha: 125 g ai/ha; for pest or weed control at 500 g/ha: 500 g ai/ha
In short: as §1

[4] = test system: wheat (Triticum aestivum); assay: Test B pre-/postemergence plant response; details: Triticum aestivum, 240 h, read-out: Plant response rating, Wheat; for plant injury at 125 g/ha: 125 g ai/ha; for plant injury at 500 g/ha: 500 g ai/ha
In short: as §1

[5] = test system: barnyardgrass (Echinochloa crus-galli); assay: Test C flooded paddy test plant response; details: Echinochloa crus-galli; Flood, 250 g ai/ha; scale of 0 to 100 where 0 is no effect and 100 is complete control; 13 to 15 days; read-out: Barnyardgrass plant response rating
In short: (§2)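 2-leaf plants; flood 3 cm, cpd into paddy water; greenhouse 13–15 d; visual score vs untreated, 0 = no effect, 100 = complete control; dash = no result.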

[6] = test system: ducksalad (Heteranthera limosa); assay: Test C flooded paddy test plant response; details: Heteranthera limosa; Flood, 250 g ai/ha; scale of 0 to 100 where 0 is no effect and 100 is complete control; 13 to 15 days; read-out: Ducksalad plant response rating
In short: as §2

rice (Oryza sativa) = assay: Test C flooded paddy test plant response; details: Oryza sativa; Flood, 250 g ai/ha; scale of 0 to 100 where 0 is no effect and 100 is complete control; 13 to 15 days; read-out: Rice plant response rating
In short: as §2

[7] = test system: small-flower umbrella sedge (Cyperus difformis); assay: Test C flooded paddy test plant response; details: Cyperus difformis; Flood, 250 g ai/ha; scale of 0 to 100 where 0 is no effect and 100 is complete control; 13 to 15 days; read-out: Sedge, Umbrella plant response rating
In short: as §2

[8] = test system: johnsongrass (Sorghum halepense); assay: Test D pre-/postemergence plant response; details: Sorghum halepense; for pest or weed control at 16 g/ha: 16 g ai/ha; for pest or weed control at 31 g/ha: 31 g ai/ha; for pest or weed control at 62 g/ha: 62 g ai/ha; for pest or weed control at 125 g/ha: 125 g ai/ha
In short: (§3)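 Visual injury scoring (0–100) at 13 to 15 days in greenhouse. Preemergence sprays on seeded loam/sand; postemergence sprays on 1–4 leaf plants.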

[9] = test system: lambsquarters (Chenopodium album); assay: Test D pre-/postemergence plant response; details: Chenopodium album; for pest or weed control at 16 g/ha: 16 g ai/ha; for pest or weed control at 31 g/ha: 31 g ai/ha; for pest or weed control at 62 g/ha: 62 g ai/ha; for pest or weed control at 125 g/ha: 125 g ai/ha
In short: as §3

[10] = post-emergence, postemergence, 0 to 100 scale, 0 no effect, 100 complete control
[11] = post-emergence, Postemergence, 0 to 100 scale (0 no effect, 100 complete control)
[12] = pre-emergence, Preemergence, 0 to 100 scale where 0 is no effect and 100 is complete control
[13] = post-emergence, Postemergence, scale 0 to 100 (0 no effect, 100 complete control), read-out: Johnsongrass plant response rating
[14] = post-emergence, Postemergence, scale 0 to 100, 0 no effect, 100 complete control, read-out: Plant response rating, Johnsongrass
[15] = pre-emergence, Preemergence, scale 0 to 100 (0 no effect, 100 complete control), read-out: Plant response rating, Johnsongrass
[16] = post-emergence, Postemergence, scale 0 to 100 (0 no effect, 100 complete control), read-out: Lambsquarters plant response rating
[17] = post-emergence, Postemergence, scale 0 to 100, 0 no effect, 100 complete control, read-out: Plant response rating, Lambsquarters
[18] = pre-emergence, Preemergence, scale 0 to 100 (0 no effect, 100 complete control), read-out: Plant response rating, Lambsquarters

Compound: FC(F)(F)c1cc(-c2ccccc2Oc2ncc(Cl)cn2)on1 [Compound 63, 5-chloro-2-[2-[3-(trifluoromethyl)-5-isoxazolyl]phenoxy]pyrimidine]
- pest or weed control at 125 g/ha [1, 10]: 80%
- pest or weed control at 500 g/ha [1, 11]: 100%
- pest or weed control at 125 g/ha [1, 12]: 90%
- pest or weed control at 500 g/ha [1, 12]: 100%
- Corn plant response rating (crop injury, 0 = no effect, 100 = complete kill) at 125 g/ha (corn (Zea mays); [10]): 20%
- Corn plant response rating (crop injury, 0 = no effect, 100 = complete kill) at 500 g/ha (corn (Zea mays); [11]): 20%
- Corn plant response rating (crop injury, 0 = no effect, 100 = complete kill) at 125 g/ha (corn (Zea mays); [12]): 10%
- Corn plant response rating (crop injury, 0 = no effect, 100 = complete kill) at 500 g/ha (corn (Zea mays); [12]): 30%
- pest or weed control at 125 g/ha [2, 10]: 70%
- pest or weed control at 500 g/ha [2, 11]: 80%
- pest or weed control at 125 g/ha [2, 12]: 100%
- pest or weed control at 500 g/ha [2, 12]: 100%
- pest or weed control at 125 g/ha [3, 10]: 100%
- pest or weed control at 500 g/ha [3, 11]: 100%
- pest or weed control at 125 g/ha [3, 12]: 100%
- pest or weed control at 500 g/ha [3, 12]: 100%
- plant injury at 125 g/ha [4, 10]: 0%
- plant injury at 500 g/ha [4, 11]: 50%
- plant injury at 125 g/ha [4, 12]: 20%
- plant injury at 500 g/ha [4, 12]: 40%
- pest or weed control at 250 g/ha [5]: 60%
- pest or weed control at 250 g/ha [6]: 100%
- plant injury at 250 g/ha (rice (Oryza sativa)): 25%
- pest or weed control at 250 g/ha [7]: 85%
- pest or weed control at 16 g/ha [8, 13]: 5%
- pest or weed control at 31 g/ha [8, 13]: 5%
- pest or weed control at 62 g/ha [8, 14]: 25%
- pest or weed control at 125 g/ha [8, 14]: 45%
- pest or weed control at 125 g/ha ([8]; pre-emergence, Preemergence, read-out: Plant response rating (scale 0 to 100), Johnsongrass): 85%
- pest or weed control at 16 g/ha [8, 15]: 5%
- pest or weed control at 31 g/ha [8, 15]: 35%
- pest or weed control at 62 g/ha [8, 15]: 70%
- pest or weed control at 16 g/ha [9, 16]: 10%
- pest or weed control at 31 g/ha [9, 16]: 70%
- pest or weed control at 62 g/ha [9, 17]: 85%
- pest or weed control at 125 g/ha [9, 17]: 90%
- pest or weed control at 125 g/ha ([9]; pre-emergence, Preemergence, read-out: Plant response rating (scale 0 to 100), Lambsquarters): 95%
- pest or weed control at 16 g/ha [9, 18]: 95%
- pest or weed control at 31 g/ha [9, 18]: 90%
- pest or weed control at 62 g/ha [9, 18]: 90%
